Assay results from PubChem BioAssay (NCI).
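Five concentrations, 48 hours, 96-well plates. The concentration for 50% growth inhibition is given as GI50. TGI marks complete inhibition of growth.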

Experiments:
Experiment in all cases: growth of human tumour cells (NCI), 48 h
[1] = system: TK-10 renal
[2] = system: IGROV1 ovarian
[3] = system: M14 melanoma
[4] = system: NCI-H226 lung
[5] = system: HT29 colon
[6] = system: MDA-MB-435
[7] = system: HCC-2998 colon
[8] = system: U251 CNS
[9] = system: MOLT-4 leukemia
[10] = system: HS 578T breast

SMILES	GI50 [1]	TGI [1]	GI50 [2]	TGI [2]	GI50 [3]	TGI [3]	GI50 [4]	TGI [4]	GI50 [5]	TGI [5]	GI50 [6]	TGI [6]	GI50 [7]	TGI [7]	GI50 [8]	TGI [8]	GI50 [9]	TGI [9]	GI50 [10]	TGI [10]
CC/C=C1/C(=O)C=C[C@@H]1C/C=C\CCCC(=O)OC	4.07 µM	14.5 µM	3.76 µM	15.8 µM	2.8 µM	10.8 µM	13.7 µM	31.2 µM	2.25 µM	5.3 µM	1.86 µM	4.6 µM	2.13 µM	3.83 µM	2.75 µM	9.96 µM	1.37 µM	8.11 µM		
COc1ccc2nc3cccc([N+](=O)[O-])c3c(NCCCCCC(=O)O)c2c1	1.72 µM	17.6 µM	0.231 µM	1.16 µM	0.015 µM	0.0466 µM	0.306 µM	1.33 µM	0.014 µM	0.392 µM			1.18 µM	2.5 µM	0.0222 µM	2.46 µM	0.0266 µM	0.284 µM	0.456 µM	2.03 µM
Fc1ccc2c(c1)C1=NN(c3ccccc3)C(F)C1CO2 (stereo unspecified)	12.5 µM	35.6 µM	15.2 µM	> 50 µM	8.16 µM	18.6 µM	8.08 µM	19.1 µM	10 µM	26.3 µM	6.7 µM	15.9 µM			7.29 µM	15.3 µM	> 50 µM	> 50 µM	10.6 µM	28.1 µM
Nc1ccnc(=O)[nH]1		> 100 µM		> 100 µM		> 100 µM		> 100 µM		> 100 µM						> 100 µM				
CC(=O)CC(=O)OC1CC(C)CCC1C(C)C (stereo unspecified)		> 100 µM		> 100 µM		> 100 µM				> 100 µM				> 100 µM		> 100 µM		44.2 µM		
OC(c1ccccc1)(c1ccccc1)c1ccncc1		> 100 µM		> 100 µM		> 100 µM		> 100 µM		> 100 µM				> 100 µM		> 100 µM		> 100 µM		
CCc1cc(C(=O)OC)cn1C(=N)c1ccc(Cl)cc1		> 100 µM		> 100 µM		> 100 µM		> 100 µM		> 100 µM				> 100 µM		> 100 µM		> 100 µM		
Cc1ccc(S(=O)(=O)N/N=C/c2c(O)ccc3ccccc23)cc1		> 100 µM		84.5 µM		64.9 µM				> 100 µM		55.3 µM		46.1 µM		> 100 µM		> 100 µM		46.8 µM
COc1cc(OC(=O)c2ccccc2)cc2c1C(=O)C=CC2=O		32.5 µM		29 µM		32.5 µM		49.4 µM		39.8 µM		12 µM				38.2 µM		14.6 µM		69.3 µM
